Test results reported in patent US8283377B2, “Method for inhibiting blood vessel stenosis” (China Medical University, priority 2011, dated 2012).
Several values for one entry are separate records, joined by “and”; a condition that tells them apart may be missing. Identical values can stand only once. Marks after values point to notes of the source that are not given here.

Assays:
[1] = tested on: carotid artery of Sprague-Dawley (SD) rats after balloon catheter injury; test: Animal test - treatment of carotid artery injury induced blood vessel stenosis; assay type: in vivo, rat; settings: for Blood vessel neointimal layer area /middle layer area (intima/media ratio) / Blood vessel neointimal layer area: day 14
Protocol: Sprague-Dawley (SD) rats (purchased from BioLasco Taiwan Co. Ltd, Taipei) were used in the present experiment to carry out the animal test. The rats were bred in an environment with 12 hours light, followed by 12 hours dark, and fed to 10-weeks old (body weight: about 300 to 400 g). Then, carotid artery injury surgery and the following experiments were carried out. The present experiment followed the Animal Protection Act and the provisions of Animal Management Committee of National Dong Hwa University.
The SD rat was anesthetized by 320 mg/kg-body-weight chloral hydrate (purchased from Fluka), and then the abdominal area was faced upwards, and the limbs were fixed with a breathable tape on a surgery plate. The Casscells' method (Casscells et al., Migration of smooth muscle and endothelial cells. Critical events in restenosis, Circulation, 1992; 86; 723-729, which is incorporated hereinto by reference) was used to carry out the carotid artery injury surgery. First, the skin of the rat was cut open with a scissor from the midline of the neck jaw to the chest area, and then the connective tissue at the right side of the rat neck was separated from the muscle layer to expose the blood vessel next to the trachea, and the blood vessel is the common carotid artery. The right side common carotid artery, internal carotid artery, and external carotid artery were separated, and the connective tissue at the junction of these three blood vessels was completely striped. Then, the external carotid artery was tied up with a 2/0 sized silk thread, and the common carotid artery was clipped by a vascular clip to avoid heavy bleeding. A gap was made by cutting the external carotid artery with a microscopic scissor, and a balloon catheter (Cather French Size 2F, purchased from Edwards Lifescience) was implanted through the gap. The balloon catheter was inserted 5 cm into the common carotid artery, and 0.2 mL of a physiological saline solution was filled into the balloon catheter to expend the catheter. Then, the balloon catheter was pulled out to the gap of the external carotid artery, and the physiological saline solution was drawn out from the balloon catheter. After the common carotid artery was injured repeatedly for three times by this method, the gap of the external carotid artery and the bifurcation point between the external carotid artery and the common carotid artery were tied up with a 2/0 sized silk thread. Finally, the wound of the rat was stitched up and spread with an iodine solution. After the rat woke up, the carotid artery injury surgery was completed.
Two weeks after the carotid artery injury surgery, the rat was sacrificed with excess chloral hydrate (640 mg/kg-body weight). PBS (300 mL) was injected into the left ventricle of the rat using the heart perfusion method and flowed out from the right ventricle through systemic circulation. Neutral formalin (200 mL, 10 vol %) was injected into the left ventricle of the rat to immobilize the whole body tissue. The common carotid artery immobilized by formalin was removed and soaked in a 10 vol % neutral formalin solution.
The common carotid artery was divided into four sections and labeled with A, B, C, and D from the head to the heart. Each section was 4 mm in length and was placed in an embedding cassette, and then an automatic tissue processor (purchased from Sakura) was used to process the tissue. The process procedure was 1 hour in a 10 vol % formalin solution, 30 minutes in water, 1 hour in 80 vol % alcohol, 3 hours in 95 vol % alcohol, 4 hours in 100 vol % alcohol, 3 hours in xylene, and 3 hours in paraffin. After the tissue process procedure was completed, the tissue was wrapped by paraffin, and the tissue biopsy was carried out by a slicer (purchased from Lica) with a cut of 8 μm thickness. Immunohistochemical stain and H&E stain on the biopsy were carried out. […]

[2] = tested on: rat aortic smooth muscle cell line A7r5; test: Inhibiting proliferation of smooth muscle cells - cell counting analysis (trypan blue); assay type: cell-based; settings: 48 hours
Protocol: (§1) A rat aortic smooth muscle cell line A7r5 was used to carry out the present experiment. A Dulbecco's modified Eagle's medium (DMEM, purchased from Biowest) was used as a general culture medium. The medium was added with 4 mM of L-glutamine, 1.5 g/L sodium bicarbonate, 4.5 g/L glucose, and 10 wt % fetal bovine serum. The A7r5 smooth muscle cells were cultured in a 75 cm^2 petri dish, and 12 mL of the culture medium was added thereinto. The cells were placed and incubated in a cell incubator containing 5 vol % of carbon dioxide at 37° C. After the dish was fully covered by the grown cells, the medium was replaced once every 3 days, and 0.5 wt % trypsin was used for subculture.
(§2) In addition, a culture medium containing n-butylidenephthalide was prepared. Herein, n-butylidenephthalide was dissolved in dimethyl sulfoxide (purchased from Sigma), and solutions with n-butylidenephthalide concentrations of 0, 25, 50, 100, 150, and 200 mg/mL were prepared, and the solutions were stored at −20° C. When used to prepare a medium, the solutions were diluted by 1000 times with the general culture medium used for incubating smooth muscle cells to prepare a culture medium containing 0, 25, 50, 100, 150, or 200 μg/mL of n-butylidenephthalide.
The rat aortic smooth muscle cell line A7r5 was inoculated in a 6-hole culture dish (density: 1×10^5 cells/hole). After the cells were cultured for 24 hours, the medium was replaced by a medium containing n-butylidenephthalide with a concentration of 0, 25, 50, 100, 150, or 200 μg/mL to culture the smooth muscle cells. After another 48 hours, the cells were observed by an inverted microscope, and the cells were detached by 0.5 wt % trypsin. Then, 20 μL of the cell suspension was taken and mixed evenly with 20 μL trypan blue, and finally, 10 μL of the mixture was collected and added onto a blood cell counting plate. The cell number was counted by a microscope under 100× magnifications to evaluate the inhibition of n-butylidenephthalide on the growth of the smooth muscle cells.

[3] = tested on: rat aortic smooth muscle cell line A7r5; test: Inhibiting proliferation of smooth muscle cells - cell cycle analysis (propidium iodide flow cytometry); assay type: cell-based; settings: 24 hours
Protocol: as §1, §2
An inhibition test on the cell cycle progression of smooth muscle cells was carried out. Because the cellular DNA content is different in each cell cycle phase, the amount of DNA can be used to evaluate the cell cycle phase in which the cell proceeds. In another aspect, because propidium iodide can bind to DNA, and it can emit red fluorescent light with a wavelength of 625 nm after being excited by light with a wavelength of 488 nm, thus, propidium iodide was used as a fluorescent staining agent in the present experiment, and the red fluorescent intensity represented the amount of DNA, thereby determining which phase the cell was in during the cell cycle.
The rat aortic smooth muscle cell line A7r5 was inoculated in a 6-hole culture dish (density: 1×10^5 cells/hole). After the cells were cultured for 24 hours, the medium was replaced by a medium containing n-butylidenephthalide with a concentration of 0, 25, or 50 μg/mL to culture the smooth muscle cells. After another 24 hours, the cells were fixed with 70 vol % alcohol, and a phosphate buffer solution (PBS) was used to rinse the cells. Finally, propidium iodide (a solution containing 955 μL 1×PBS, 5 μL Triton X-100 (0.5 wt %, purchased from Sigma), 20 μL RNase A (10 mg/mL, purchased from Sigma), and 20 μL propidium iodide (1 mg/mL, purchased from Sigma)) was used to stain the cells for 15 minutes. Then, a flow cytometry (FC500, Beckman) was used to scan and collect 10,000 cells. Multicycle for Windows software (Phoenix Flow Systems) was used to analyze cellular cell cycle.

## CCC/C=C1\OC(=O)c2ccccc21 [n-butylidenephthalide]
[1]; 60 mg/kg-body weight
  inhibition of blood vessel stenosis (in words): no significant inhibition effect
  proportion of the rats whose increased area of the blood vessel neointimal layer was under 1×10^5 μm^2: 0%
  Blood vessel neointimal layer area /middle layer area (intima/media ratio): 1.3 +/− 0.3
[1]; 60 mg/kg-body weight, n = 6
  number of rats with increased neointimal area 0~50,000 μm^2: 0
  number of rats with increased neointimal area 50,000~100,000 μm^2: 0
  number of rats with increased neointimal area 100,000~150,000 μm^2: 4
  number of rats with increased neointimal area Above 150,000 μm^2: 2
  proportion of rats with increased neointimal area 100,000~150,000 μm^2: 66.7%
  proportion of rats with increased neointimal area Above 150,000 μm^2: 33.3%
[1]; 150 mg/kg-body weight
  inhibition of blood vessel stenosis (in words): significantly be inhibited
  inhibition of blood vessel stenosis compared with the sham group (intima/media ratio): 36.7%
  inhibition of blood vessel stenosis compared with the sham group (neointimal layer area): 36.3%
  proportion of the rats whose increased area of the blood vessel neointimal layer was under 1×10^5 μm^2: 50%
[1]; 150 mg/kg-body weight, P < 0.05
  Blood vessel neointimal layer area /middle layer area (intima/media ratio): 0.81 +/− 0.14*
[1]; 150 mg/kg-body weight, n = 6
  number of rats with increased neointimal area 0~50,000 μm^2: 0
  number of rats with increased neointimal area 50,000~100,000 μm^2: 3
  number of rats with increased neointimal area 100,000~150,000 μm^2: 3
  number of rats with increased neointimal area Above 150,000 μm^2: 0
  proportion of rats with increased neointimal area 50,000~100,000 μm^2: 50%
  proportion of rats with increased neointimal area 100,000~150,000 μm^2: 50%
[1]; 300 mg/kg-body weight
  inhibition of blood vessel stenosis (in words): significantly be inhibited
  inhibition of blood vessel stenosis compared with the sham group (intima/media ratio): 57.8%
  inhibition of blood vessel stenosis compared with the sham group (neointimal layer area): 56.2%
  proportion of the rats whose increased area of the blood vessel neointimal layer was under 1×10^5 μm^2: 83.3%
[1]; 300 mg/kg-body weight, P < 0.01
  Blood vessel neointimal layer area /middle layer area (intima/media ratio): 0.54 +/− 0.24**
[1]; 300 mg/kg-body weight, n = 6
  number of rats with increased neointimal area 0~50,000 μm^2: 2
  number of rats with increased neointimal area 50,000~100,000 μm^2: 3
  number of rats with increased neointimal area 100,000~150,000 μm^2: 1
  number of rats with increased neointimal area Above 150,000 μm^2: 0
  proportion of rats with increased neointimal area 0~50,000 μm^2: 33.3%
  proportion of rats with increased neointimal area 50,000~100,000 μm^2: 50.0%
  proportion of rats with increased neointimal area 100,000~150,000 μm^2: 16.7%
[1]; carotid artery Section A, 60 mg/kg-body weight abdominal injection, days 1,3,5,7,9,11
  Blood vessel neointimal layer area: 164528 +/− 81467 μm^2
[1]; carotid artery Section A, 150 mg/kg-body weight abdominal injection
  Blood vessel neointimal layer area: 75272 +/− 36346 μm^2
[1]; carotid artery Section A, 300 mg/kg-body weight abdominal injection
  Blood vessel neointimal layer area: 53118 +/− 33403 μm^2
[1]; carotid artery Section B, 60 mg/kg-body weight abdominal injection
  Blood vessel neointimal layer area: 168355 +/− 37686 μm^2
[1]; carotid artery Section B, 150 mg/kg-body weight abdominal injection
  Blood vessel neointimal layer area: 119827 +/− 35005 μm^2
[1]; carotid artery Section B, 300 mg/kg-body weight abdominal injection
  Blood vessel neointimal layer area: 76551 +/− 45327 μm^2
[1]; carotid artery Section C, 60 mg/kg-body weight abdominal injection
  Blood vessel neointimal layer area: 138260 +/− 36681 μm^2
[1]; carotid artery Section C, 150 mg/kg-body weight abdominal injection
  Blood vessel neointimal layer area: 93111 +/− 19875 μm^2
[1]; carotid artery Section C, 300 mg/kg-body weight abdominal injection
  Blood vessel neointimal layer area: 61150 +/− 27899 μm^2
[1]; carotid artery Section D, 60 mg/kg-body weight abdominal injection
  Blood vessel neointimal layer area: 130852 +/− 77915 μm^2
[1]; carotid artery Section D, 150 mg/kg-body weight abdominal injection
  Blood vessel neointimal layer area: 85273 +/− 15262 μm^2
[1]; carotid artery Section D, 300 mg/kg-body weight abdominal injection
  Blood vessel neointimal layer area: 66654 +/− 23434 μm^2
[1]; whole carotid artery (Table 4), 60 mg/kg-body weight
  Blood vessel neointimal layer area: 150499 +/− 34951 μm^2
[1]; whole carotid artery (Table 4), 150 mg/kg-body weight, P < 0.01
  Blood vessel neointimal layer area: 93371 +/− 14693 ** μm^2
[1]; whole carotid artery (Table 4), 300 mg/kg-body weight, P < 0.01
  Blood vessel neointimal layer area: 64368 +/− 20641 ** μm^2
[2]; 25 μg/mL
  Growth rate: 0.56 +/− 0.06%
[2]; 50 μg/mL
  Growth rate: 0.32 +/− 0.04%
[2]; 100 μg/mL
  Growth rate: 0.25 +/− 0.03%
[2]; 150 μg/mL
  Growth rate: 0.12 +/− 0.04%
[2]; 200 μg/mL
  Growth rate: 0.10 +/− 0.02%
[2]; Rattus norvegicus, 25 μg/mL, read-out: inhibition rate of smooth muscle cell growth
  inhibition at 25 µg/mL: 43.6%
[2]; Rattus norvegicus, read-out: IC50 of smooth muscle cell growth
  IC50: 27 µg/mL and 143 µM
[3]; 25 and 50 μg/mL
  effect on cell cycle of smooth muscle cells (in words): stagnate the smooth muscle cells in the G0/G1 phase
[3]; 25 μg/mL
  Ratio of cells in cell cycle phase G0/G1: 68.33 +/− 0.05%
  Ratio of cells in cell cycle phase G2/M: 11.3 +/− 1.25%
  Ratio of cells in cell cycle phase S: 20.33 +/− 2.05%
[3]; 50 μg/mL
  Ratio of cells in cell cycle phase G0/G1: 68.9% and 68.86 +/− 5.2%
  Ratio of cells in cell cycle phase G2/M: 12.1 +/− 1.15%
  Ratio of cells in cell cycle phase S: 19.0% and 19.00 +/− 4.3%
